PubChem BioAssay (NCI)
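Cultured in 96-well plates, cells were exposed to test compound for 48 hours across five concentrations. Definition used: TGI = concentration required for complete inhibition of growth.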

Key:
Test in all cases: DTP human tumour cell line panel, 48 h
[1] = test system: SK-MEL-2 melanoma
[2] = test system: SN12C renal
[3] = test system: OVCAR-4 ovarian
[4] = test system: OVCAR-5 ovarian
[5] = test system: K-562 leukemia
[6] = test system: SK-MEL-28 melanoma
[7] = test system: HCC-2998 colon
[8] = test system: SNB-19 CNS
[9] = test system: UACC-62 melanoma
[10] = test system: NCI-H226 lung
[11] = test system: OVCAR-8 ovarian
[12] = test system: CAKI-1 renal
[13] = test system: EKVX NSCLC
[14] = test system: SR leukemia
[15] = test system: UO-31 renal
[16] = test system: ACHN renal
[17] = test system: MOLT-4 leukemia
[18] = test system: U251 CNS
[19] = test system: KM12 colon
[20] = test system: HCT-15 colon

Row | SMILES | TGI [1] [µM] | TGI [2] [µM] | TGI [3] [µM] | TGI [4] [µM] | TGI [5] [µM] | TGI [6] [µM] | TGI [7] [µM] | TGI [8] [µM] | TGI [9] [µM] | TGI [10] [µM] | TGI [11] [µM] | TGI [12] [µM] | TGI [13] [µM] | TGI [14] [µM] | TGI [15] [µM] | TGI [16] [µM] | TGI [17] [µM] | TGI [18] [µM] | TGI [19] [µM] | TGI [20] [µM]
1 | CCCOC(=O)CCC(NC(=O)c1ccc(Nc2nc3ccccc3nc2-c2cccs2)cc1)C(=O)OCCC (stereo not given) | 59.9 | > 100 | > 100 | > 100 | > 100 | > 100 | > 100 | > 100 | > 100 | > 100 | > 100 | > 100 | > 100 | > 100 | > 100 | > 100 | > 100 | > 100 | > 100 | > 100
2 | CN(C)CCCn1c(-c2ccc(Br)cc2)csc1=Nc1ccccc1 | 31 | 70.9 | 38 | 36.3 | 47.8 | 53.3 | 18.3 | 31.6 | 29.6 | 27.3 | 32.1 | 41 | 23.8 | 46.8 | 30.2 | 37.7 | 59.2 | > 100 | 26.4 | 71
3 | CC/C(CC(=O)CCC(=O)Nc1ccc(C)c(C)c1)=N\NC(=O)c1cc2ccccc2cc1O | > 100 | > 100 | > 100 | > 100 | > 100 | 46.9 | 43.2 | > 100 | 43.9 | > 100 | > 100 | > 100 | 88.3 | 69 | > 100 | > 100 | > 100 | > 100 | > 100 | > 100
